We go through 16 compounds from patent publication US5696276A, “Process for preparing 5,8-dihydroxynaphthoquinone derivatives, novel 5,8-dihydroxynaphthoquinone derivatives and their use as anticancer agent” (Kuhnil Pharmaceutical Co., Ltd., priority 1993, dated 1997).

Converted amounts (≈) assume the structure as drawn.

The subject of test [1] is K-562 cells. The test is described as follows: Cytotoxic activity against K-562 cells. In kind it is cell-based. The conditions noted are these: Homo sapiens; K562 cells, 48 hours, 37° C.; read-out: ED50, cytotoxic activity against K562. Here is the method: As in the test for the cytotoxic activity against L1210 cells, the test samples were dissoved in ethanol or dimethylsulfoxide in a certain concentration. 0.1 ml of the sample solution was mixed with 0.9 ml of a fresh medium to prepare the dilutions. To each two test tubes having a screw cap were added 100, 50, 25 μl, respectively, of the sample dilutions by means of a micropipet. To each test tube for the test group and the control group (2√n: n=number of the samples) was added 5 ml of the dilutions of HL-60 cells and K-562 cells which were cultured and activated before 24 hours from the beginning of experiment and then diluted in a concentration of 1×10^5 cells/mi. All test tubes were cultured for 48 hours in a CO2 incubator at 37° C. and then the number of cells was counted using a haemacytometer.
(§1) The ED50 value is defined as a concentration (μg/ml) of the sample which inhibits the growth of cancer cells by 50% of the control group and determined according to a method described in NIC's mannual (NIC=National Cancer Institue, U.S.A.). The growth rate Y(%) of cells in the presence of the test sample in each concentration was calculated according to the followign equation: […]
(§2) In the above equation, T means the average cell number per ml in the test group after incubation for 48 hours in the presence of the test samples in each concentration, C means the average cell number per ml in the control group after incubation for 48 hours, and Co means the average cell number per ml in the control group at the beginning of incubation. The Y(%) value at each concentration and log10 value of each concentration were obtained and the regression curve was constructed according to the following equation from those obtained values. In this case, when all the Y(%) value obtained at each concentration is greater than 55% or lower than 45%, the experiment was repeatedly conducted.
(§3) To construct the regression curve Y=A+BX the values A and B were obtained using the following equation. [formula]
(§4) In the above, the value N is the number of selected points which is greater than 2 and lower than, or identical with, the number of cencentration of the test sample, Xi is log(concentration) i, and Yi is the growth ratio at (concentration)i. The value of ED50 was obtained for those obtained slope and intercept.

Test [2] has as its system A549 cancer cells. The test is described as follows: Cytotoxic activity against A549 cancer cells (sulforhodamin B method). The conditions noted are these: Homo sapiens; A549 cells, SRB method, 48 hours; read-out: ED50, cytotoxic activity against A549. In kind it is cell-based. As to the method: The cytotoxic activity against A549 cancer cells was determined using a method for measuring sulforhodamin B (SRB), which was developed in the year 1989 by NIC for measuring anticancer activity of the drug in vitro. For the experiment, cells under subculturing were separated from the attached surface with trypsin-CDTA solution and then dispensed into a 24-well flat-bottom microplate (Falcon) so that the number of cells per well is 8×10^4 (A549). The microplate was incubated in a CO2 incubator for 24 hours to attach the dispensed cells to bottom. The medium was removed with aspirator. Then, 100 μl of the solution of the test compounds diluted in a log-dose of 6 kinds of concentration was added to each well containing cells, in a multiple of 3. The microplate was incubated for further 48 hours. In addition, the diluted solution of the test compounds above was filtered through a 0.22 μm filter, before addition to the cells, to keep the experiment under sterilized condition. The cells were incubated with the test compounds for 48 hours and then the medium was removed from each well. 100 μl of 10% trichloroacetic acid (TCA) was added to each well and then the plate was allowed to stand at 4° C. for one hour to fix the cells to the bottom of plate. After fixing the cells, the plate was washed 5 to 6 times with water to completely remove any remaining TCA solution and then dried at room temperature until water is no longer present. To the completely dried plate was added the dying solution of 0.4% SRB dissolved in 1% acetic acid in an amount of 250 μl per well to stain the cells for 30 minutes and then the plate was washed again 5 to 6 times with 1% acetic acid solution to remove the remaining SRB which is not bound to the cells. The stained cell plate was dried again at room temperature. Then, the dying solution was carefully dissolved in a certain amount of 10 mM Tris so that the O.D. value in the control group at 520 nm is 0.8-1.0 Å (optical density), and the optical density at 520nm was determined. The ED50 value was obtained from the determined optical density. To calculate the activity of the drug against cancer cells, the number of cells (Tz) at the beginning of the addition of drug, the number of cells (C) after incubation with the medium in the absence of drug for 48 hours and the number of cells (T) after incubation in the presence of drugs at each concentration for 48 hours were determined.
The anticancer activity of the test compounds was determined form the following equations. Specifically, in the […] the equation (T-Tz)/(C-Tz)×100 was used and in the case of Tz<T the equation (T-Tz)/Tz×100 was used. Then the IC50 value wich is the concentration of drug which inhibits the growth of cancer cells by 50% was calcualted from the above calculated values using a data regressive function of LOTUS programme and the cytotoxic activities of the test compounds were compared with each other.
Background: Sulforhodamine B stains cellular protein and so reports cell mass.

Test [3] relates to L1210 cells. The test is described as follows: Cytotoxic activity against L1210 cells. In kind it is cell-based. The conditions noted are these: Mus musculus; L1210 cells, 48 hours, 37° C.; read-out: ED50, cytotoxic activity against L1210. Here is the method: To obtain L1210 cells in a logarithmic phase for cytotoxic activity test, in a 250 ml Erlenmeyer flask with a screw cap including Fisher medium warmed to 36° to 37° C. L1210 cells were adjusted to a concentration of 2-3×10^5 cells/ml and then cultured, before 24 hours from the beginning of experiment. Then, the culture solution thus obtained was suspended to prepare a L1210 cell suspension having a concentration of about 0.8-1.0×10^6 cells/ml. Test sample was dissoved in ethanol or dimethylsulfoxide in a certain concentration just before the experiment. 0.1 ml of the sample solution was diluted 10 times with 0.9 ml of a fresh medium. To each screw-capped test tube were added 100, 50, 25 μl, respectively, of the sample dilutions and then added 5 ml of the cell suspension (5×10^4 cells/ml) prepared above to use as the test group. To the test tubes for the control group (2√n: n=number of the samples), only 5 ml of the cell suspension was added. All test tubes were cultured for 48 hours in a CO2 incubator at 37° C. and then the number of cells was counted using a haemacytometer.
as §1, §2, §3, §4

In test [4] the test system is S-180 sarcoma cells. The test is described as follows: Animal experiment using Sarcoma S-180 cells (survival of mouse). The conditions noted are these: ip, S-180 ICR mouse, comparative drug, 0.5 mg/kg/day (1.2 μmole). Type of test: in vivo, male ICR mouse. As to the method: In this experiment, healthy male ICR mouse weighing 20 to 25 g were used as test animal and were fed with water and feed without any restriction in the chamber controlled at the temperature of 23° to 24° C. As the feed, the antibiotic-free feed for mouse was used.
S-180 cells which were incubated for 7 days within abdominal cavity of ICR mouse were separated together with ascites. To the separated cells was added sterilized cold physiological saline and the mixture was centrifuged with 400×g for 2 minutes to separate the cell precipitate. The separated cell precipitate was suspended again in sterilized cold physiological saline and then centrifuged to remove the supernatant. Only S-180 cells were taken, excluding any red bllod cells incorporated therein, washed three times with the same method as above, and then suspended to obtain the cell suspension in concentration of 10^7 cells/ml by counting the number of cells with a haemacytometer. Each 0.1 ml of this cell suspension was transplanted in an abdominal cavity.
After 24 hours from the transplantation, mouse were divided so that each group contains 8 to 9 mouse. The test sample was dissolved in a predetermined amount of dimethylsulfoxide to prepare the stock solution which was stored at 4° C. 30 μl of the stock solution was taken and then mixed with 1.5 ml of physiological saline. 0.1 ml of this mixture was intraperitoneally injected to the test animal. To the control group, 2% dimethylsulfoxide-physiological saline solution was injected. Meanwhile, doxorubicin which is used as the comparative drug was dissolved in 2% dimethylsulfoxide-physiological saline solution and then injected in an amount of 0.5 mg(titer)/kg. The schedule for injection comprises a total of 7 to 8 injections in the manner that after the transplantation of cancer cells 0.1 ml of the test sample per a day is administered for 2 to 4 days followed by the rest for one day. The survival rate was calculated on the basis of the date on which all of one control group is died (approximately 18 to 20 days). The survival rate (T/C, %) was calculated by the following equation as proposed in NIC's protocol: [formula]

Regarding `COc1ccc(OC)c2c1C(=O)C=C(C(CCC(C)C)OCCC(C)C)C2=O` (centres unmarked) [2-[1-(3-methylbutoxy)-4-methylpentyl]-5,8-dimethoxy-1,4-naphthoquinone], the IC50 in test [1] worked out at 2.3 µg/mL (≈ 5.92 µM); in test [2], 3.3 µg/mL (≈ 8.49 µM); in test [3], 2.5 µg/mL (≈ 6.43 µM).
Regarding `CCCCC(O)C1=CC(=O)c2c(OC)ccc(OC)c2C1=O` (centres unmarked) [2-(1-hydroxypentyl)-5,8-dimethoxy-1,4-naphthoquinone], the IC50 came out at 1.1 µg/mL (≈ 3.61 µM) in test [1], 6.4 µg/mL (≈ 21 µM) in test [2] and 0.1 µg/mL (≈ 0.329 µM) in test [3].
Regarding `CCCCCCCCCC(O)C1=CC(=O)c2c(OC)ccc(OC)c2C1=O` (centres unmarked) [2-(1-hydroxydecyl)-5,8-dimethoxy-1,4-naphthoquinone], the IC50 in test [1] is 1.6 µg/mL (≈ 4.27 µM); in test [2], 9.2 µg/mL (≈ 24.6 µM); in test [3], 1.4 µg/mL (≈ 3.74 µM).
As for `CCCCCCCC(O)C1=CC(=O)c2c(OC)ccc(OC)c2C1=O` (centres unmarked) [2-(1-hydroxyoctyl)-5,8-dimethoxy-1,4-naphthoquinone], the IC50 in test [1] worked out at 2.1 µg/mL (≈ 6.06 µM); in test [2], 7.5 µg/mL (≈ 21.6 µM); in test [3], 1 µg/mL (≈ 2.89 µM).
As to `CCCCCCCCCCCCOC(CCC(C)C)C1=CC(=O)c2c(O)ccc(O)c2C1=O` (centres unmarked) [2-(1-dodecyloxy-4-methylpentyl)-5,8-dihydroxy-1,4-naphthoquinone], the IC50 in test [1], in test [2] and in test [3] was > 20 µg/mL throughout.
Take `CCCCCOC(CCC(C)C)C1=CC(=O)c2c(OC)ccc(OC)c2C1=O` (centres unmarked) [2-(1-pentyloxy-4-methylpentyl)-5,8-dimethoxy-1,4-naphthoquinone]: the IC50 in test [1] is 3 µg/mL (≈ 7.72 µM); in test [2], 7.8 µg/mL (≈ 20.1 µM); in test [3] it was 2.6 µg/mL (≈ 6.69 µM).
For `CCCCCCCCCCCCC(O)C1=CC(=O)c2c(OC)ccc(OC)c2C1=O` (centres unmarked) [2-(1-hydroxytridecyl)-5,8-dimethoxy-1,4-naphthoquinone] the same measures were 2.3 µg/mL (≈ 5.52 µM), 2.8 µg/mL (≈ 6.72 µM) and 1.8 µg/mL (≈ 4.32 µM).
On the same counts, the results for `CCCCCOC(CCC(C)C)C1=CC(=O)c2c(O)ccc(O)c2C1=O` (centres unmarked) [2-(1-pentyloxy-4-methylpentyl)-5,8-dihydroxy-1,4-naphthoquinone] are 0.2 µg/mL (≈ 0.555 µM), 1.3 µg/mL (≈ 3.61 µM) and 0.3 µg/mL (≈ 0.832 µM).
As to `CCCCCCCOC(CCC(C)C)C1=CC(=O)c2c(OC)ccc(OC)c2C1=O` (centres unmarked) [2-(1-heptyloxy-4-methylpentyl)-5,8-dimethoxy-1,4-naphthoquinone], the results for the IC50 in test [1], in test [2] and in test [3] were 6.4 µg/mL (≈ 15.4 µM), 4.7 µg/mL (≈ 11.3 µM) and 3.1 µg/mL (≈ 7.44 µM), respectively.
Consider `CCOC(CCC(C)C)C1=CC(=O)c2c(OC)ccc(OC)c2C1=O` (centres unmarked) [2-(1-ethoxy-4-methylpentyl)-5,8-dimethoxy-1,4-naphthoquinone], for which the IC50 in test [1] stood at 1.5 µg/mL (≈ 4.33 µM); in test [2], 3 µg/mL (≈ 8.66 µM); in test [3], 0.01 µg/mL (≈ 0.0289 µM).
`CCCCCCCC(O)C1=CC(=O)c2c(O)ccc(O)c2C1=O` (centres unmarked) [2-(1-hydroxyoctyl)-5,8-dihydroxy-1,4-naphthoquinone]: the values for the IC50 in test [1], in test [2] and in test [3] were 0.2 µg/mL (≈ 0.628 µM), 0.4 µg/mL (≈ 1.26 µM) and 0.07 µg/mL (≈ 0.22 µM), respectively.
For `CCCCCCCOC(CCC(C)C)C1=CC(=O)c2c(O)ccc(O)c2C1=O` (centres unmarked) [2-(1-heptyloxy-4-methylpentyl)-5,8-dihydroxy-1,4-naphthoquinone] the same measures were 0.2 µg/mL (≈ 0.515 µM), 2.4 µg/mL (≈ 6.18 µM) and 0.8 µg/mL (≈ 2.06 µM).
For `CCCCCCCCCCCCOC(CCC(C)C)C1=CC(=O)c2c(OC)ccc(OC)c2C1=O` (centres unmarked) [2-(1-dodecyloxy-4-methylpentyl)-5,8-dimethoxy-1,4-naphthoquinone] the same measures were 3.7 µg/mL (≈ 7.6 µM), 4.8 µg/mL (≈ 9.86 µM) and 6.3 µg/mL (≈ 12.9 µM).
On the same counts, the results for `CCCCCCCCCC(O)C1=CC(=O)c2c(O)ccc(O)c2C1=O` (centres unmarked) [2-(1-hydroxydecyl)-5,8-dihydroxy-1,4-naphthoquinone] are 0.3 µg/mL (≈ 0.866 µM), 0.5 µg/mL (≈ 1.44 µM) and 0.1 µg/mL (≈ 0.289 µM).
For the compound `CCCCCCCCCC(OC(=O)CCCCCCC)C1=CC(=O)c2c(O)ccc(O)c2C1=O` (centres unmarked) [2-(1-octanoyloxydecyl)-5,8-dihydroxy-1,4-naphthoquinone], the IC50 was > 20 µg/mL in test [1], > 20 µg/mL in test [2] and 0.9 µg/mL (≈ 1.9 µM) in test [3].
`COc1cccc2c1C(=O)c1c(O)c3c(c(O)c1C2=O)C[C@@](O)(C(=O)CO)C[C@@H]3O[C@H]1C[C@H](N)[C@H](O)[C@H](C)O1` [Doxorubicin, reference compound]: the responders at 0.5 mg/kg/day in test [4] (1200 h, read-out: Number of mouse survived for 50 days (converted)) is 44.4%. The response vs control in vivo at 0.5 mg/kg/day in test [4] (read-out: T/C) came out at 230%.
